These results are taken from US7973083B2, “Pesticidally active compounds” (priority 2003, dated 2011).

Common to all, as to type: in vivo
Data set [1] relates to Corn ‘NK58D1. Description: Field test, corn phytotoxicity after herbicide with or without insecticide (Table I). As to conditions: scale 0-100. On the procedure:
(§1) Field tests were conducted in the following way: Corn was seeded with standard sowing implements and grown under natural conditions until the 2-3 leaf stage of corn was reached. Corn with or without insecticide treatments applied at seeding was grown at the same time. At 2-3 leaf stage, the herbicides only or in combination with the insecticide, if the insecticide has not been applied at seeding, was applied broadcast foliar over the top. At highest phytotoxicity levels for corn at five days after application and at maximal weed control levels at 16 days after application, the trial was evaluated.

Data set [2] relates to Amaranthus retroflexus. Kind of data set: Field test, weed control (Table I). The note with it: scale 0-100. Here is the method:
as §1

The test system of data set [3] is Sweet Corn ‘Jubilee SS. Description: Field test, sweet corn phytotoxicity after herbicide with or without insecticide (Table I). The note with it: scale 0-100. On the procedure:
as §1

For data set [4], the system named is Solanum Nigrum. Kind of data set: Glasshouse test, insecticide pre-plant incorporated followed by post application of herbicide, weed control (Table 2). The note with it: no insecticide, 43 days after last application. From the text: (§2) Insecticide Pre-Plant Incorporated Followed by Post Application of the Herbicide
(§3) Prior to the planting of corn and weed, the substrate was filled into plastic pots and the different insecticides were applied with glasshouse spray equipment on bare soil at rates indicated in the results table. After the insecticide application, the substrate in the pots was mixed up in order to get an even distribution of the insecticide throughout the pot Crop and weed were planted following this procedure and grown under standard glasshouse conditions allowing optimal plant growth until 2-3 leaf stage. Then the herbicides were applied according to the rates indicated in the results table post emergent foliar over the top including standard adjuvants. The plants were visually evaluated on a scale of 0-100% wherein 0% indicated no phytotoxicity and 100% indicated full control or death. 0-15% indicates acceptable crop tolerance, 85-100% acceptable weed control. The evaluation was done at the time when maximal phytotoxicity or activity occurred.

The test system of data set [5] is Corn Sweet honeycomb. Description: Glasshouse test, insecticide and herbicide tank-mixed post emergent, corn phytotoxicity (Table 3). The note with it: no insecticide, 8 days after last application.
Source text: (§4) Insecticide and Herbicide Applied Tank-Mixed Post Emergent
as §3, with “pots.” for “pots and the different insecticides were applied with glasshouse spray equipment on bare soil at rates indicated in the results table. After the insecticide application, the substrate in the pots was mixed up in order to get an even distribution of the insecticide throughout the pot”, “according” for “according to”

Data set [6] relates to Corn Cecilia. Description: Glasshouse test, insecticide pre-plant incorporated followed by post application of herbicide, corn phytotoxicity (Table 2). As to conditions: no insecticide, 20 days after last application.
Source text: as §2, §3

The subject of data set [7] is Solanum Nigrum. Kind of data set: Glasshouse test, insecticide and herbicide tank-mixed post emergent, weed control (Table 3). The note with it: no insecticide, 34 days after last application.
Source text: as §4
as §3, with “pots.” for “pots and the different insecticides were applied with glasshouse spray equipment on bare soil at rates indicated in the results table. After the insecticide application, the substrate in the pots was mixed up in order to get an even distribution of the insecticide throughout the pot”, “according” for “according to”

The mark [8] stands for this setting: insecticide alone, in furrow at seeding 11.2 GA/100 Row M, 5 days.
Where [9] appears, read: insecticide alone, post 1120 GA/Ha, 5 days.
Setting [10] is: insecticide alone, in furrow at seeding 11.2 GA/100 Row M, 16 days.
[11] abbreviates: herbicide post 400 GA/Ha, scale 0-100.
The mark [12] stands for this setting: herbicide post, mesotrione 210 GA/Ha (a.e. for Cu), no insecticide, 5 days after last application.

For the compound `CCOP(=S)(OCC)Oc1nc(Cl)c(Cl)cc1Cl` [Chlorpyrifos], the Phytotox. in data set [1] (setting [8]), in data set [1] (setting [9]), in data set [3] (setting [8]) and in data set [3] (setting [9]) was 0% each time. The “Weed Control” value in data set [2] (setting [10]) came out at 0%; in data set [2] (insecticide alone, post 1120 GA/Ha, 16 days), 0%.

Consider `CS(=O)(=O)c1ccc(C(=O)C2C(=O)CCCC2=O)c([N+](=O)[O-])c1` [Mesotrione, 2-(2′-nitro-4′-methylsulphonylbenzoyl)-1,3-cyclohexanedione], for which the “Weed Control” value in data set [4] (herbicide post 100 GA/Ha) worked out at 98%; in data set [4] (herbicide post 200 GA/Ha), 100%; in data set [4] (setting [11]) it was 0%; in data set [2] (herbicide post, mesotrione 105 GA/Ha (a.e. for Cu), no insecticide, 16 days after last application), 90%; in data set [2] (herbicide post, mesotrione 210 GA/Ha (a.e. for Cu), no insecticide, 16 days after last application) it was 95%; in data set [7] (herbicide post 100 GA/Ha), 100%. Moreover, the “Weed Control” value in data set [7] (herbicide post 200 GA/Ha) and in data set [7] (setting [11]) was 100% throughout. The Phytotox. in data set [5] (herbicide post 100 GA/Ha) is 10%; in data set [5] (herbicide post 200 GA/Ha), 20%; in data set [5] (setting [11]), 20%; in data set [6] (herbicide post 100 GA/Ha) it was 5%; in data set [6] (herbicide post 200 GA/Ha), 0%; in data set [6] (setting [11]), 0%. The Phytotox. in data set [1] (herbicide post, mesotrione 105 GA/Ha (a.e. for Cu), no insecticide, 5 days after last application, COC 1% V/V + UAN 2.5% V/V) is reported as 3.8%; in data set [1] (setting [12]), 8.8%; in data set [3] (herbicide post, mesotrione 105 GA/Ha (a.e. for Cu), no insecticide, 5 days after last application), 16.3%; in data set [3] (setting [12]), 15%.

As for `CCOP(=S)(OCC)SCSC(C)(C)C` [Terbufos], the Phytotox. in data set [1] (setting [8]) and in data set [3] (setting [8]) was 0% throughout. The “Weed Control” value in data set [2] (setting [10]) is 0%.
